Patent US20070203202A1, “Methods of reducing adverse events associated with pirfenidone therapy” (priority 2005, published 2007)
Where two headings read alike, the source gives them in different places.

Tests used:
[1] = Multiple-dose escalating-dose study of adverse events, doses taken with food; format: in vivo, human; details: 801 to 4005 mg/day escalating
Description: A second study was designed to examine incidences of adverse events on multiple ascending daily doses of pirfenidone. The trial was conducted as an open-label, escalating-dose study with no washout period between dose escalations. 25 healthy adults between the ages of 45 and 79 (inclusive) having body mass indices between 18 and 30 (inclusive) were enrolled. 22 adults completed the treatment. Each volunteer received from 801 mg/day to 4005 mg/day of pirfenidone divided into three equal doses as follows:
All subjects were admitted to the clinic for clinical evaluation the day before the first dose of study medication and remained confined for 17 days. Each subject received all dose levels of the study drug unless adverse events or the clinical judgment of the trial physician precluded the continuation of treatment. All doses were taken with 240 mL room temperature water and with food (excluding grapefruit juice). TID doses times were ˜0800, ˜1200, and ˜1800.

[2] = Pharmacokinetics of an 801 mg pirfenidone dose taken with or without food; format: in vivo, human; details: for half-life: human, plasma, oral, 801 mg, read-out: mean absorption half life (converted)
Description: (§1) A study was designed to evaluate the effect of food, antacids, and food taken with antacids on adverse events associated with pirfenidone use. The trial was conducted as a randomized, open-label, four-treatment crossover, with a single dose for each treatment period and a 2-day washout period between study treatments. 16 healthy adults between the ages of 50 and 79 years having body mass indices between 18 and 30 (inclusive) were enrolled and completed all 4 treatment arms. The treatment arms were as follows:
(§2) All subjects were admitted to the clinic for clinical evaluation the day prior to receiving the first dose of the study medication and remained confined for 13 days. Following an overnight fast of at least 10 hours (h), subjects were randomized to one of the above-described 4 treatment sequences. Each dose of pirfenidone (3×267 mg capsules) was administered orally with 240 mL room temperature water on days 1, 4, 7, and 10 in the morning, following an overnight fast of at least 10 hours. The washout period between treatments was 2 days. A standard meal consisted of 2 fried eggs, 2 strips of bacon, 2 slices of toast, 2 pats of butter, hash brown potatoes (4 oz), and whole milk (8 oz).
Of 7 subjects who reported nausea, 5 of 16 (31%) were fasted compared to only 2 of 16 (13%) fed subjects. Of 5 subjects reporting dizziness, 4 of 16 (25%) were fasted, while only 1 of 16 (6%) was fed. Of 3 subjects reporting somnolence, 2 of 16 (13%) were fasted and 1 of 16 (6%) were fed. Of 3 subjects reporting headaches, 2 of 16 (13%) were fasted and 1 of 16 (6%) were fed.

[3] = tested on: fibrogenic cytokines such as TGF-β1, bFGF, PDGF, and EGF; details: Zhang S et al. 1998; cited from earlier work
[4] = Single-dose four-treatment crossover study of the effect of food and antacid on adverse events; format: in vivo, human; details: for subjects who experienced an adverse event: single oral dose 3×267 mg, 16 healthy adults
Description: as §1
A) pirfenidone alone (Fasted);
B) pirfenidone within 1 minute following a dose of antacid (20 mL Mylanta® Maximum Strength Liquid) (Fasted+Antacid);
C) pirfenidone 5 minutes after completing a standard meal (Fed); and
D) pirfenidone 5 minutes after completing a standard meal, then within 1 minute, followed by a dose of antacid (Fed+Antacid).
as §2
On each study day, adverse events were reviewed with the patients as follows. Before administration of the first dose of the study drug, study site personnel noted the occurrence and nature of each subject's medical condition(s). During the trial, site personnel again noted any change in the condition(s) or occurrence and nature of any adverse events. The severity of adverse events were graded based on the Modified Common Toxicity Criteria and the relationship of the study drug to the adverse event determined.

[5] = tested on: TNF-α; details: macrophages and other cells; Cain et al. 1998; cited from earlier work
[6] = 801 mg pirfenidone without food

Structure (SMILES): Cc1ccc(=O)n(-c2ccccc2)c1 [pirfenidone, 5-methyl-1-phenyl-2-(1H)-pyridone]
- subjects with at least one adverse event ([1]; TID with food, 23 of 25 healthy adults): 92%
- incidence of headache ([1]; with food, 7 of 25): 28%
- incidence of somnolence ([1]; with food, 8 of 25): 32%
- incidence of nausea ([1]; with food, 9 of 25): 36%
- subjects with adverse events in whom the adverse events were mild ([1]; with food, 22 of the 23 subjects): 95%
- mean maximum plasma concentration ([2]; 801 mg pirfenidone with food): 7874 ng/mL
- mean maximum plasma concentration [2, 6]: 15724 ng/mL
- half-life ([2]; 801 mg pirfenidone with food): 1.78 h
- half-life [2, 6]: 0.572 h
- effect on biosynthesis or release of fibrogenic cytokines [3]: inhibits excessive biosynthesis or release
- incidence of somnolence ([4]; all arms, 4 of 16): 25%
- incidence of dizziness ([4]; all arms, 6 of 16): 38%
- incidence of nausea ([4]; all arms, 7 of 16): 44%
- subjects with adverse events in whom the adverse events were mild ([4]; all arms, 8 of the 12 subjects with an adverse event): 66.7%
- subjects with at least 1 adverse event in total ([4]; all four treatment arms, 12 of 16 subjects): 75%
- incidence of headaches ([4]; fasted, 2 of 16): 13%
- incidence of somnolence ([4]; fasted, 2 of 16): 13%
- incidence of dizziness ([4]; fasted, 4 of 16): 25%
- incidence of nausea ([4]; fasted, 5 of 16): 31%
- incidence of dizziness ([4]; fed, 1 of 16): 6%
- incidence of headaches ([4]; fed, 1 of 16): 6%
- incidence of somnolence ([4]; fed, 1 of 16): 6%
- incidence of nausea ([4]; fed, 2 of 16): 13%
- subjects who experienced an adverse event ([4]; pirfenidone alone without food (Fasted)): 56.3%
- subjects who experienced an adverse event ([4]; with food (Fed)): 31.3%
- subjects who experienced an adverse event ([4]; with food and antacid (Fed+Antacid)): 25%
- subjects who experienced an adverse event ([4]; within 1 minute following a dose of antacid (Fasted+Antacid)): 56.3%
- effect on synthesis and release of TNF-α [5]: blocks the synthesis and release of excessive amounts of TNF-α
